# Experimental data: patent EP2758401B1 (Bayer Intellectual Property GmbH, priority 2011, dated 2013)
# Experiments:
# MKNK1 [1] = target: T1, MKNK1 (Homo sapiens, UniProt Q9BUB5, T385D); assay: MKNK1 kinase assay (TR-FRET); format: biochemical; settings: ATP final conc. 10 µM; 15 min pre-incubation; reaction time 45 min at 22°C
# T1 construct: GST (N); purchased Carna Biosciences 02-145; host or cells: insect cells (baculovirus expression system)
# Method: MKNK1-inhibitory activity of compounds of the present invention was quantified employing the MKNK1 TR-FRET assay as described in the following paragraphs.
# As substrate for the kinase reaction the biotinylated peptide biotin-Ahx-[…] (C-terminus in amide form) was used which can be purchased e.g. form the company Biosyntan (Berlin-Buch, Germany).
# For the assay 50 nL of a 100fold concentrated solution of the test compound in DMSO was pipetted into a black low volume 384well microtiter plate (Greiner Bio-One, Frickenhausen, Germany), 2 µL of a solution of MKNK1 in aqueous assay buffer [50 mM HEPES pH 7.5, 5 mM magnesium chloride, 1.0 mM dithiothreitol, 0.005% (v/v) Nonidet-P40 (Sigma)] was added and the mixture was incubated for 15 min at 22°C to allow pre-binding of the test compounds to the enzyme before the start of the kinase reaction. Then the kinase reaction was started by the addition of 3 µL of a solution of adenosine-tri-phosphate (ATP, 16.7 µM => final conc. in the 5 µL assay volume is 10 µM) and substrate (0.1 µM => final conc. in the 5 µL assay volume is 0.06 µM) in assay buffer and the resulting mixture was incubated for a reaction time of 45 min at 22°C.
# The resulting mixture was incubated for 1 h at 22°C to allow the formation of complex between the phosphorylated biotinylated peptide and the detection reagents. Subsequently the amount of phosphorylated substrate was evaluated by measurement of the resonance energy transfer from the Eu-chelate to the streptavidine-XL. Therefore, the fluorescence emissions at 620 nm and 665 nm after excitation at 350 nm were measured in a TR-FRET reader, e.g. a Rubystar (BMG Labtechnologies, Offenburg, Germany) or a Viewlux (Perkin-Elmer). The ratio of the emissions at 665 nm and at […] was taken as the measure for the amount of phosphorylated substrate. The data were normalised (enzyme reaction without inhibitor = 0 % inhibition, all other assay components but no enzyme = 100 % inhibition). […] Table 1: MKNK1 IC50s
# MKNK1 [2] = target: T1, MKNK1; assay: MKNK1 kinase high ATP assay (TR-FRET); format: biochemical; settings: ATP final conc. 2 mM; 15 min pre-incubation; reaction time 30 min at 22°C
# Method: MKNK1-inhibitory activity at high ATP of compounds of the present invention after their preincubation with MKNK1 was quantified employing the TR-FRET-based MKNK1 high ATP assay as described in the following paragraphs.
# As substrate for the kinase reaction the biotinylated peptide biotin-Ahx-[…] (C-terminus in amide form) was used, which can be purchased e.g. from the company Biosyntan (Berlin-Buch, Germany).
# For the assay 50 nL of a 100fold concentrated solution of the test compound in DMSO was pipetted into a black low volume 384well microtiter plate (Greiner Bio-One, Frickenhausen, Germany), 2 µL of a solution of MKNK1 in aqueous assay buffer [50 mM HEPES pH 7.5, 5 mM magnesium chloride, 1.0 mM dithiothreitol, 0.005% (v/v) Nonidet-P40 (Sigma)] was added and the mixture was incubated for 15 min at 22°C to allow pre-binding of the test compounds to the enzyme before the start of the kinase reaction. Then the kinase reaction was started by the addition of 3 µL of a solution of adenosine-tri-phosphate (ATP, 3.3 mM => final conc. in the 5 µL assay volume is 2 mM) and substrate (0.1 µM => final conc. in the 5 µL assay volume is 0.06 µM) in assay buffer and the resulting mixture was incubated for a reaction time of 30 min at 22°C. The concentration of MKNK1 was adjusted depending of the activity of the enzyme lot and was chosen appropriate to have the assay in the linear range, typical concentrations were in the range of 0.003 µg/mL. The reaction was stopped by the addition of 5 µL of a solution of TR-FRET detection reagents (5 nM streptavidine-XL665 [Cisbio Bioassays, Codolet, France] and 1 nM anti-ribosomal protein S6 (pSer236)-antibody from Invitrogen [# 44921G] and 1 nM LANCE EU-W1024 labeled ProteinG [Perkin-Elmer, product no. AD0071]) in an aqueous EDTA-solution (100 mM EDTA, 0.1 % (w/v) bovine serum albumin in 50 mM HEPES pH 7.5).
# The resulting mixture was incubated for 1 h at 22°C to allow the formation of complex between the phosphorylated biotinylated peptide and the detection reagents. Subsequently the amount of phosphorylated substrate was evaluated by measurement of the resonance energy transfer from the Eu-chelate to the streptavidine-XL. Therefore, the fluorescence emissions at 620 nm and 665 nm after excitation at 350 nm were measured in a TR-FRET reader, e.g. a Rubystar (BMG Labtechnologies, Offenburg, Germany) or a Viewlux (Perkin-Elmer). The ratio of the emissions at 665 nm and at […] was taken as the measure for the amount of phosphorylated substrate. The data were normalised (enzyme reaction without inhibitor = 0 % inhibition, all other assay components but no enzyme = 100 % inhibition).
# T1 sequence (Q9BUB5 1-424 isoform Q9BUB5-2 T344D): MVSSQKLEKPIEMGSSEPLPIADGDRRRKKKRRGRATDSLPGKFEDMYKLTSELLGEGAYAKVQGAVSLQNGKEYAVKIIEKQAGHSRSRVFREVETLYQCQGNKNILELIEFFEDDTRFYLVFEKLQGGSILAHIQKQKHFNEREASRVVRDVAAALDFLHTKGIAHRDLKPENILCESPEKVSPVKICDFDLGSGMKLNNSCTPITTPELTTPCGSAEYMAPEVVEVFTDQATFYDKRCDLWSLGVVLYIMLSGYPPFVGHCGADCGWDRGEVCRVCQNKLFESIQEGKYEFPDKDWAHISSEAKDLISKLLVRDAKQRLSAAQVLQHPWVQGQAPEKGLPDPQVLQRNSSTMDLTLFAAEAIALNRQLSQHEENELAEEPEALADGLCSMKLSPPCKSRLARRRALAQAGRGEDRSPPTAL
compound,measurement,setting,value
"1-{[3-(1-Benzofuran-2-yl)imidazo[1,2-b]pyridazin-6-yl]oxy}-2-methylpropan-2-amine [Example 29]",IC50,MKNK1 [1],17 nM
same,IC50,MKNK1 [2],59 nM
"COc1cccc2oc(-c3cnc4ccc(OCCCCN)nn34)cc12 [Example 1, 4-{[3-(4-Methoxy-1-benzofuran-2-yl)imidazo[1,2-b]pyridazin-6-yl]oxy}butan-1-amine]",IC50,MKNK1 [1],3 nM
same,IC50,MKNK1 [2],5 nM
"N[C@H]1C[C@H](Oc2ccc3ncc(-c4cc5ccccc5o4)n3n2)C1 [Example 2, trans-3-{[3-(1-Benzofuran-2-yl)imidazo[1,2-b]pyridazin-6-yl]oxy}cyclobutan-amine]",IC50,MKNK1 [1],5 nM
same,IC50,MKNK1 [2],6 nM
"N[C@H]1C[C@@H](Oc2ccc3ncc(-c4cc5ccccc5o4)n3n2)C1 [Example 3, cis-3-{[3-(1-Benzofuran-2-yl)imidazo[1,2-b]pyridazin-6-yl]oxy}cyclobutan-amine]",IC50,MKNK1 [1],4 nM
same,IC50,MKNK1 [2],17 nM
"COc1cccc2oc(-c3cnc4ccc(OCCCN)nn34)cc12 [Example 4, 3-{[3-(4-Methoxy-1-benzofuran-2-yl)imidazo[1,2-b]pyridazin-6-yl]oxy}propan-1-amine]",IC50,MKNK1 [1],5 nM
same,IC50,MKNK1 [2],15 nM
"COc1cccc2oc(-c3cnc4ccc(OCCN)nn34)cc12 [Example 5, 2-{[3-(4-Methoxy-1-benzofuran-2-yl)imidazo[1,2-b]pyridazin-6-yl]oxy}ethan-amine]",IC50,MKNK1 [1],6 nM
same,IC50,MKNK1 [2],18 nM
"COc1ccc2oc(-c3cnc4ccc(OCCN)nn34)cc2c1 [Example 6, 2-{[3-(5-Methoxy-1-benzofuran-2-yl)imidazo[1,2-b]pyridazin-6-yl]oxy}ethan-amine]",IC50,MKNK1 [1],6 nM
same,IC50,MKNK1 [2],13 nM
"C[C@H](N)COc1ccc2ncc(-c3cc4ccccc4o3)n2n1 [Example 7, (2S)-1-{[3-(1-Benzofuran-2-yl)imidazo[1,2-b]pyridazin-6-yl]oxy}propan-2-amine]",IC50,MKNK1 [1],7 nM
same,IC50,MKNK1 [2],18 nM
"NCCCCOc1ccc2ncc(-c3cc4ccccc4o3)n2n1 [Example 8, 4-{[3-(1-Benzofuran-2-yl)imidazo[1,2-b]pyridazin-6-yl]oxy}butan-1-amine]",IC50,MKNK1 [1],7 nM
same,IC50,MKNK1 [2],17 nM
"COc1ccc2oc(-c3cnc4ccc(OCCCN)nn34)cc2c1 [Example 9, 3-{[3-(5-Methoxy-1-benzofuran-2-yl)imidazo[1,2-b]pyridazin-6-yl]oxy}propan-1-amine]",IC50,MKNK1 [1],7 nM
same,IC50,MKNK1 [2],22 nM
"NCCOCCOc1ccc2ncc(-c3cc4ccccc4o3)n2n1 [Example 21, 2-(2-{[3-(1-Benzofuran-2-yl)imidazo[1,2-b]pyridazin-6-yl]oxy}ethoxy)ethan-amine]",IC50,MKNK1 [2],14 nM
"N[C@@H]1CCCC[C@H]1Oc1ccc2ncc(-c3cc4ccccc4o3)n2n1 [Example 23, (1R,2R)-2-{[3-(1-Benzofuran-2-yl)imidazo[1,2-b]pyridazin-6-yl]oxy}cyclohexan-amine]",IC50,MKNK1 [2],18 nM
"NC1(COc2ccc3ncc(-c4cc5ccccc5o4)n3n2)CCC1 [Example 27, 1-({[3-(1-Benzofuran-2-yl)imidazo[1,2-b]pyridazin-6-yl]oxy}methyl)cyclobutan-amine]",IC50,MKNK1 [2],29 nM
"C=CCCC(CN)Oc1ccc2ncc(-c3cc4ccccc4o3)n2n1 (centres unmarked) [Example 28, 2-{[3-(1-Benzofuran-2-yl)imidazo[1,2-b]pyridazin-6-yl]oxy}hex-5-en-1-amine]",IC50,MKNK1 [2],45 nM
"NCC(CN1CCOCC1)Oc1ccc2ncc(-c3cc4ccccc4o3)n2n1 (centres unmarked) [Example 31, 2-{[3-(1-Benzofuran-2-yl)imidazo[1,2-b]pyridazin-6-yl]oxy}-3-(morpholin-4-yl)-propan-1-amine]",IC50,MKNK1 [2],78 nM
"NC(COc1ccc2ncc(-c3cc4ccccc4o3)n2n1)C1CCOCC1 (centres unmarked) [Example 32, 2-{[3-(1-Benzofuran-2-yl)imidazo[1,2-b]pyridazin-6-yl]oxy}-1-(tetrahydro-2H-pyran-4-yl)ethanamine]",IC50,MKNK1 [2],79 nM
"NCC(Cc1ccc(F)cc1)Oc1ccc2ncc(-c3cc4ccccc4o3)n2n1 (centres unmarked) [Example 53, 2-{[3-(1-Benzofuran-2-yl)imidazo[1,2-b]pyridazin-6-yl]oxy}-3-(4-fluorophenyl)-propan-1-amine]",IC50,MKNK1 [2],46 nM
"NCC(Cc1ccncc1)Oc1ccc2ncc(-c3cc4ccccc4o3)n2n1 (centres unmarked) [Example 54, 2-{[3-(1-Benzofuran-2-yl)imidazo[1,2-b]pyridazin-6-yl]oxy}-3-(pyridin-4-yl)-propan-1-amine]",IC50,MKNK1 [2],19 nM
"NC[C@H](Oc1ccc2ncc(-c3cc4ccccc4o3)n2n1)c1cccnc1 [Example 55, (2R)-2-{[3-(1-benzofuran-2-yl)imidazo[1,2-b]pyridazin-6-yl]oxy}-2-(pyridin-3-yl)ethanamine]",IC50,MKNK1 [1],16 nM
"NCC(Oc1ccc2ncc(-c3cc4ccccc4o3)n2n1)c1ccc(F)cc1 (centres unmarked) [Example 56, 2-{[3-(1-benzofuran-2-yl)-imidazo-[1,2-b]-pyridazin-6-yl]oxy}-2-(4-fluorophenyl)-ethanamine]",IC50,MKNK1 [1],40 nM
"NCC(Oc1ccc2ncc(-c3cc4ccccc4o3)n2n1)c1ccccn1 (centres unmarked) [Example 57, 2-{[3-(1-benzofuran-2-yl)-imidazo-[1,2-b]-pyridazin-6-yl]oxy}-2-(pyridin-2-yl)-ethanamine]",IC50,MKNK1 [1],94 nM
"CC(C)Oc1cccc(C(CN)Oc2ccc3ncc(-c4cc5ccccc5o4)n3n2)c1 (centres unmarked) [Example 58, 2-{[3-(1-benzofuran-2-yl)-imidazo-[1,2-b]-pyridazin-6-yl]oxy}-2-(3-iso-propoxyphenyl)-ethanamine]",IC50,MKNK1 [1],20 nM
"NCC(Oc1ccc2ncc(-c3cc4ccccc4o3)n2n1)c1cccc(C(F)(F)F)c1 (centres unmarked) [Example 59, 2-{[3-(1-benzofuran-2-yl)-imidazo-[1,2-b]-pyridazin-6-yl]oxy}-2-[3-(trifluoromethyl)-phenyl]-ethanamine]",IC50,MKNK1 [1],37 nM
"NCC(Oc1ccc2ncc(-c3cc4ccccc4o3)n2n1)c1ccc(F)cc1F (centres unmarked) [Example 60, 2-{[3-(1-benzofuran-2-yl)-imidazo-[1,2-b]-pyridazin-6-yl]oxy}-2-(2,4-difluorophenyl)-ethanamine]",IC50,MKNK1 [1],39 nM
"N[C@H](COc1ccc2ncc(-c3cc4ccccc4o3)n2n1)c1ccc(F)cc1 [Example 61, (1S)-2-{[3-(1-benzofuran-2-yl)imidazo[1,2-b]pyridazin-6-yl]oxy}-1-(4-fluorophenyl)ethanamine]",IC50,MKNK1 [1],29 nM
"N[C@H](COc1ccc2ncc(-c3cc4ccccc4o3)n2n1)c1ccc(Cl)cc1 [Example 62, (1S)-2-{[3-(1-benzofuran-2-yl)imidazo[1,2-b]pyridazin-6-yl]oxy}-1-(4-chlorophenyl)ethanamine]",IC50,MKNK1 [1],31 nM
"NC(COc1ccc2ncc(-c3cc4ccccc4o3)n2n1)c1cccnc1 (centres unmarked) [Example 63, 2-{[3-(1-benzofuran-2-yl)imidazo[1,2-b]pyridazin-6-yl]oxy}-1-(pyridin-3-yl)ethanamine]",IC50,MKNK1 [1],54 nM
NCCC(Oc1ccc2ncc(-c3cc4ccccc4o3)n2n1)c1ccc(F)cc1 (centres unmarked) [Example 64],IC50,MKNK1 [1],57 nM
